Reference: PMC10770970, “Synthesis and cytotoxic activity evaluation of novel imidazopyridine carbohydrazide derivatives” (BMC Chemistry, 2024)
“Also recorded” adds a separate entry of the source.

What was measured:
[1] = system: MCF-7 (human breast adenocarcinoma) cells; assay: MTT reduction cytotoxicity assay, MCF-7; format: cell-based; settings: ± S.E.M., max tested 100 µM
Procedure: (§1) All synthesized compounds were evaluated for cytotoxic activity against three human cancer cell lines including MCF-7, HT-29, and K562 by employing an MTT (3-(4,5-dimethylthiazol-2-yl)-2,5-diphenyltetrazolium bromide) assay. […] Cisplatin and doxorubicin were tested as standard chemotherapeutic reference agents.
(§2) MCF-7 (human breast adenocarcinoma), HT-29 (Human colorectal adenocarcinoma), K562 (human chronic myelogenous leukemia), and Vero (kidney epithelial cells of African green monkey) cells were obtained from Iranian Biological Resource Center, Tehran, Iran. MCF-7, K562, and Vero cells were cultured in RPMI 1640 medium containing 10% heat-inactivated fetal bovine serum (FBS) and 1% penicillin/streptomycin, while HT-29 cells were grown in DMEM low glucose, containing 20% heat-inactivated FBS and 1% penicillin/streptomycin. All cells were grown in monolayer culture at 37 °C in a humidified incubator with 5% CO2.
(§3) Assessment of cell viability after exposure of cancer and non-cancer cells to synthetic compounds was performed using the MTT (3-(4,5-dimethylthiazol-2-yl)-2,5-diphenyltetrazolium bromide) reduction assay. Cells were plated in 96-well microplates at densities of 30,000 cells/mL (100 μL in each well). The plates were incubated overnight at 37 °C and then 50 μL of the growth medium was replaced with the same amount of fresh medium containing 3–4 different concentrations of synthesized analogs at the final concentrations of 10–100 µM. Test compounds were initially dissolved in DMSO and then diluted in the growth medium. The upper limit of DMSO concentration in each well was 0.5%. After 72 h of incubation, 80 μL of the solution in each well was substituted with the same quantity of the growth medium comprising of MTT solution at 0.5 mg/mL. Cells were subsequently incubated at 37 °C for 4 h and then 80 μL of the solution in each well was removed. The introduction of DMSO (200 μL) to each well caused the formazan crystals formed inside the viable cells to dissolve. The process lasted 1.5 h (1 h of incubation and 30 min of shaking). The optical absorbance of the final solution was quantified at the wavelength of 570 nm using a microplate reader. IC50 values for all derivatives were calculated using CurveExpert 1.34 software.

[2] = system: K562 (human chronic myelogenous leukemia) cells; assay: MTT reduction cytotoxicity assay, K562; format: cell-based; settings: ± S.E.M., max tested 100 µM
Procedure: as §1, §2, §3

[3] = system: HT-29 (Human colorectal adenocarcinoma) cells; assay: MTT reduction cytotoxicity assay, HT-29; format: cell-based; settings: ± S.E.M., max tested 100 µM
Procedure: as §1, §2, §3

[4] = system: Vero (kidney epithelial cells of African green monkey) cells; assay: MTT reduction cytotoxicity assay, Vero non-cancer cells; format: cell-based; settings: 72 h, ± S.E.M., max tested 100 µM
Procedure: as §1, §2, §3

[5] = system: MCF-7 cells; assay: Apoptosis by Hoechst 33,258 staining; format: cell-based, human; settings: 100 µM, 72 h
Procedure: This also further adds to the potential value of this derivative as an anticancer agent, as it is known that apoptosis evasion is an important hallmark of cancer, and apoptosis induction capacity is an important feature of any successful therapeutic agent.
Fig. 4 Measurement of apoptosis induced by Hoechst 33,258 staining assay. […] The cells were then stained with 2.5 µg/ml Hoechst 33,258 after being fixed with 4% cold paraformaldehyde (PFA) and imaged using a fluorescence microscope (Magnification: 500 X). Apoptotic cells as featured by nuclear shrinkage, fragmentation, condensation, etc., are shown by red arrows
Hoechst 33,258 staining assay was used to determine apoptosis induction in cancer cells. Hoechst 33,258 is a fluorescent dye that binds to minor grooves in DNA and is commonly used to determine the characteristic features of apoptosis including condensation and fragmentation, etc. in the cell’s nuclei. MCF-7 cells were cultured in 6-well plates at a density of 10^5 cells/ml and exposed to 100 µM of compound 7d for 72 h. The growth medium was completely removed at the end of the incubation time and the cells were fixed with 1 ml of 4% cold freshly prepared paraformaldehyde (PFA) and incubated for 20 min. […] In the end, the cells were washed twice with PBS and imaged with a fluorescence microscope (Nikon model DS-Ri2).

[6] = system: MCF-7 cells; assay: Cell cycle analysis by RNase/propidium iodide flow cytometry; format: cell-based, human; settings: 48 h; for Percent of MCF-7 cells in Sub G1: control 0.8 ± 0.3; for Percent of MCF-7 cells in S: control 11.7 ± 2.3; for Percent of MCF-7 cells in G2/M: control 26.1 ± 2.9; for Percent of MCF-7 cells in G0/G1: control 61.4 ± 1.4
Procedure: Fig. 3 Effect of compound 7d on cell cycle phase distribution of MCF-7 cells. The analysis of cells in different phases of the cell cycle was performed using propidium iodide (PI)-based assessment of cell cycle by flow cytometry. […] The cells were then collected, washed with PBS and fixed with 70% ethanol overnight at −20 °C. After 24 h, the fixed cells were incubated in a PI-RNase solution at room temperature and 10,000 cells were analyzed using a FACS Calibur flow cytometer (BD Biosciences)
The analysis of cells in different phases of the cell cycle and the sub-G1 phase were monitored using RNase/propidium iodide (PI)-based assessment of the cell cycle by flow cytometry. […] At the end of the incubation, the culture media in each well were collected and the cells were washed with PBS. Then, they were fixed with 70% ethanol overnight at −20 °C. After 24 h, the fixed cells were washed with PBS and subsequently stained with DNA staining solution (PI 20 μg/mL and RNase 200 μg/mL) at room temperature for 30 min in the dark. Ten thousand cells of each sample were analyzed using a FACS Calibur flow cytometer (BD Biosciences) and the percentage of the cells in sub-G1, G0/G1, S, and G2/M phases were calculated using CellQuest (BD, USA) software.

Row | SMILES | melting point | IC50 ([1]; Homo sapiens, MCF7, 72 h) | IC50 ([2]; Homo sapiens, K562, 72 h) | IC50 ([3]; Homo sapiens, HT-29, 72 h) | IC50 ([4]; Chlorocebus sabaeus, Vero) | other results
1 | O=C(NNCc1cn(Cc2ccc(Br)cc2)nn1)c1cn2ccccc2n1 [Compound 11d, N´-((1-(4-bromobenzyl)-1H-1,2,3-triazol-4-yl)methyl)imidazo[1,2-a]pyridine-carbohydrazide] | 186 to 188 °C | > 100 µM | > 100 µM | 83.9 µM | > 100 µM | IC50 MCF-7 ([1]; 72 h): no activity; IC50 K562 ([2]; 72 h): no activity; IC50 ([3]; 72 h): 83.8 ± 13.1 µM; IC50 Vero [4]: completely inactive
2 | O=C(NNCc1cn(Cc2ccccc2)nn1)c1cn2ccccc2n1 [Compound 11a, N´-((1-benzyl-1H-1,2,3-triazol-4-yl)methyl)imidazo[1,2-a]pyridine-2-carbohydrazide] |  | 40.3 ± 2.9 µM | > 100 µM | 61.2 ± 6.3 µM | > 100 µM | IC50 Vero [4]: completely inactive
3 | O=C(NN=Cc1ccc(Cl)cc1)c1cn2ccccc2n1 [Compound 7c, N´-(4-chlorobenzylidene)imidazo[1,2-a]pyridine-2-carbohydrazide] | 226 to 228 °C | 64.8 ± 11.8 µM | > 100 µM | 85.4 ± 10.3 µM | 65.6 ± 4.5 µM | 
4 | O=C(NN=Cc1ccc(Br)cc1)c1cn2ccccc2n1 [Compound 7d, N´-(4-bromobenzylidene)imidazo[1,2-a]pyridine-2-carbohydrazide] | 230 to 232 °C | 22.6 ± 1 µM | > 100 µM | 13.4 ± 1.3 µM | > 100 µM | Apoptosis induction (in words) [5]: induce apoptosis; also recorded: clear signs of apoptosis including nuclear condensation and fragmentation; IC50 Vero [4]: completely inactive; also recorded: no toxic effect; Percent of MCF-7 cells in Sub G1 ([6]; 7d 20 µM): 0.8 ± 0.6%; Percent of MCF-7 cells in S ([6]; 7d 20 µM): 11.9 ± 5.7%; Percent of MCF-7 cells in G2/M ([6]; 7d 20 µM): 23.3 ± 10.0%; Percent of MCF-7 cells in G0/G1 ([6]; 7d 20 µM): 64.2 ± 7.6%; Percent of MCF-7 cells in Sub G1 ([6]; 7d 50 µM): 0.8 ± 0.6%; Percent of MCF-7 cells in S ([6]; 7d 50 µM): 11.1 ± 4.9%; Percent of MCF-7 cells in G2/M ([6]; 7d 50 µM): 21.1 ± 8.8%; Percent of MCF-7 cells in G0/G1 ([6]; 7d 50 µM): 67.0 ± 8.4%; Percent of MCF-7 cells in Sub G1 ([6]; 7d 100 µM): 1.1 ± 0.9%; Percent of MCF-7 cells in S ([6]; 7d 100 µM): 10.2 ± 5.3%; Percent of MCF-7 cells in G2/M ([6]; 7d 100 µM): 21.5 ± 7.2%; Percent of MCF-7 cells in G0/G1 ([6]; 7d 100 µM): 67.2 ± 7.5%; Effect on cell cycle phase distribution (in words) ([6]; MCF-7 cells): dose-dependent increase in the G0/G1 phase and a concomitant decrease in the G2/M phase; also recorded: increased the number of MCF-7 cells in the G0/G1 phase; also recorded: increase the number of cancer cells in the G0/G1 phase
5 | C#CCNNC(=O)c1cn2ccccc2n1 [Compound 9, N´-(Prop-2-yn-1-yl) imidazo[1,2-a]pyridine-2-carbohydrazide] | 142 to 144 °C | 70.1 ± 5.3 µM | 23.7 ± 2.3 µM | 21.4 ± 1.9 µM | 73 ± 9.9 µM | 
6 | O=C(NNCc1cn(Cc2ccc(F)cc2)nn1)c1cn2ccccc2n1 [Compound 11b, N´-((1-(4-fluorobenzyl)-1H-1,2,3-triazol-4-yl)methyl)imidazo[1,2-a]pyridine-carbohydrazide] | 205 to 207 °C | > 100 µM | > 100 µM | > 100 µM |  | 
7 | O=C(NN=Cc1ccccc1)c1cn2ccccc2n1 [Compound 7a, N´-benzylidene imidazo[1,2-a]pyridine-2-carbohydrazide] | 257 to 259 °C | > 100 µM | > 100 µM | > 100 µM |  | 
8 | N.N.[Cl][Pt][Cl] [Cisplatin, reference compound] |  |  |  |  |  | IC50 ([1]; 72 h): 25.9 ± 6.9 µM; IC50 ([2]; 72 h): 9.4 ± 0.5 µM; IC50 ([3]; 72 h): 22.4 ± 5.8 µM; IC50 [4]: 10.6 ± 1.3 µM
9 | O=C(NNCc1cn(Cc2ccc(Cl)cc2)nn1)c1cn2ccccc2n1 [Compound 11c, N´-((1-(4-chlorobenzyl)-1H-1,2,3-triazol-4-yl)methyl)imidazo[1,2-a]pyridine-carbohydrazide] | 193 to 195 °C | > 100 µM | > 100 µM | > 100 µM |  | 
10 | O=C(NN=Cc1ccc(F)cc1)c1cn2ccccc2n1 [Compound 7b, N´-(4-fluorobenzylidene)imidazo[1,2-a]pyridine-2-carbohydrazide] | 234 to 236 °C | > 100 µM | > 100 µM | > 100 µM |  | 
11 | NNC(=O)c1cn2ccccc2n1 [Compound 5, imidazo[1,2-a]pyridine-2-carbohydrazide] |  | > 100 µM | > 100 µM | > 100 µM |  | 
12 | Cc1ccc(C=NNC(=O)c2cn3ccccc3n2)cc1 [Compound 7e, N´-(4-methylbenzylidene)imidazo[1,2-a]pyridine-2-carbohydrazide] | 180 to 182 °C | > 100 µM | > 100 µM | > 100 µM |  | 
13 | COc1cccc2c1C(=O)c1c(O)c3c(c(O)c1C2=O)C[C@@](O)(C(=O)CO)C[C@@H]3O[C@H]1C[C@H](N)[C@H](O)[C@H](C)O1 [Doxorubicin, reference compound] |  |  |  |  | 2.6 ± 0.3 µM | 
14 | Cc1ccc(Cn2cc(CNNC(=O)c3cn4ccccc4n3)nn2)cc1 [Compound 11e, N´-((1-(4-methylbenzyl)-1H-1,2,3-triazol-4-yl)methyl)imidazo[1,2-a]pyridine-carbohydrazide] | 140 to 142 °C | > 100 µM | > 100 µM | > 100 µM |  | 
